What was measured:
[1] = mouse, microsomes
Procedure: Microsomal stability was determined using mouse hepatic microsomes and LC/MS detections over time (Zhou et al., 2013, 22).

kappa opioid receptor [2] = target: T1, kappa opioid receptor (Homo sapiens, UniProt P41145); assay: PathHunter DiscoverX β-arrestin2 recruitment (enzyme fragment complementation) assay; format: cell-based; conditions: for EC50: 3 parameter nonlinear regression, nc = did not converge, read-out: β-arrestin2 EC50; for β-arrestin2 Emax (% U60): relative to U69,593 = 100% Emax, ~ did not plateau at 100%; for β-arrestin2 maximum stimulation observed at 10 μM (starred Emax cells / % max at 10 uM): * compounds that did not reach plateau
Target sequence in this assay (P41145 whole entry, the tested form may be a part): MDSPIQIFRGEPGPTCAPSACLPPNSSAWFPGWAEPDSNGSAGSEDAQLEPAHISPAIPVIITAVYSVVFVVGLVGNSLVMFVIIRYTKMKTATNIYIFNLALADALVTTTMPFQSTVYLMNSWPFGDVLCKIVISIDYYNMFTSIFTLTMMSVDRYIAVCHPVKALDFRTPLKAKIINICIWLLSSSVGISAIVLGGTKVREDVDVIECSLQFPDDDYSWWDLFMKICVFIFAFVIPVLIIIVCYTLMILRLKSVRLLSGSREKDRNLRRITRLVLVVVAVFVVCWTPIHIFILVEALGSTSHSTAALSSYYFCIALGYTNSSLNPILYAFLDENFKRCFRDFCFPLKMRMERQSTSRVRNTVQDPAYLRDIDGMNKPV
Target sequence in this assay (P32121 whole entry partner, the tested form may be a part): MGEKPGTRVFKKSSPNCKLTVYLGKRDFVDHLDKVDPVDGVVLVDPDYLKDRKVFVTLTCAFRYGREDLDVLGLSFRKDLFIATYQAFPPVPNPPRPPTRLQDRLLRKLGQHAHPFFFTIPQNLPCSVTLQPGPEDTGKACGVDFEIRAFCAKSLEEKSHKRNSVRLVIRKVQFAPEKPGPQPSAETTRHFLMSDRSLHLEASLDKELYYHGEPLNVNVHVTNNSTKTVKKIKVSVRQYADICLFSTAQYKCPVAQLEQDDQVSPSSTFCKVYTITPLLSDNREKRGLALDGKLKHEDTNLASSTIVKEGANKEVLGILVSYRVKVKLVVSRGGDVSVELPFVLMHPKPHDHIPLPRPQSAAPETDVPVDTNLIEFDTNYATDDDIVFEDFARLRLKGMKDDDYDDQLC

kappa opioid receptor [3] = target: T1, kappa opioid receptor; assay: GTPγS binding assay (G-protein activation); format: biochemical; conditions: for GTPγS Emax (% U60): relative to U69,593 = 100% Emax; for EC50: 3 parameter nonlinear regression, nc = did not converge
Target sequence in this assay (P41145 whole entry, the tested form may be a part): as the sequence (P41145 whole entry, the tested form may be a part) above

Row | SMILES | Microsomal Stability [1] | EC50 (kappa opioid receptor [2]) | β-arrestin2 Emax (% U60) (kappa opioid receptor [2]) | GTPγS Emax (% U60) (kappa opioid receptor [3]) | β-arrestin2 maximum stimulation observed at 10 μM (starred Emax cells / % max at 10 uM) (kappa opioid receptor [2]) | EC50 (kappa opioid receptor [3]) | KOR potency / activity in words (SAR commentary) (kappa opioid receptor [3]) | GTPγS maximum stimulation observed at 10 μM (starred Emax cells) (kappa opioid receptor [3]; * compounds that did not reach plateau, 10 μM)
1 | Cc1ccc(CCc2nnc(-c3ncccn3)n2Cc2cccs2)cc1C(F)(F)F [Compound 17] | 0.8 min | 2180 nM | 150 % U60 |  |  |  |  | 
2 | Cc1ccc(CCc2nnc(-c3ncccc3C)n2Cc2cccs2)cc1C(F)(F)F [Compound 19] | 1.1 min | 1550 nM | 117 % U60 |  |  |  |  | 
3 | COc1ccc(CCc2nnc(-c3ccccn3)n2Cc2cccs2)cc1 [Compound 25] | 5.6 min | > 10000 nM | 124 % U60 |  |  |  |  | 
4 | Brc1ccccc1CCc1nnc(-c2ccccn2)n1Cc1cccs1 [Compound 30] | 1.7 min | > 10000 nM |  | 84 % U60 | 53* % U60 |  |  | 
5 | Cc1ccc(CCc2nnc(-c3ccccn3)n2CC2CCCO2)cc1C(F)(F)F (stereo not drawn) [Compound 17a] |  | 5430 nM |  |  |  | 104 nM |  | 
6 | Cc1ccc(CCc2nnc(-c3ccccn3)n2CCc2ccccc2)cc1C(F)(F)F [Compound 13a] |  |  |  |  |  | 1940 nM |  | 
7 | c1ccc(-c2nnc(CCc3ccc4ccccc4c3)n2Cc2cccs2)nc1 [Compound 36] | 2.4 min |  |  |  |  |  |  | 
8 | Cc1ccc(/C=C/c2nnc(-c3ccccn3)n2Cc2cccs2)cc1C(F)(F)F [Compound 47] | 22.0 min |  |  | 83 % U60 | 36* % U60 |  | completely inactive | 
9 | FC(Cc1nnc(-c2ccccn2)n1Cc1cccs1)c1ccccc1 (stereo not drawn) [Compound 46] | 69.7 min | > 10000 nM |  |  | 64* % U60 | 1060 nM |  | 
10 | c1ccc(-c2nnc(C3CCc4ccccc4C3)n2Cc2cccs2)nc1 (stereo not drawn) [Compound 37] | 13.1 min |  |  |  |  |  |  | 
11 | Cc1ccc(CCc2nnc(-c3ccccn3)n2-c2ccccc2)cc1C(F)(F)F |  |  |  |  |  |  | potency was completely lost | 
12 | C(=C/c1nnc(-c2ccccn2)n1Cc1ccco1)/c1ccccc1 [Compound 38] | 19.4 min |  |  |  | 0* % U60 |  |  | 3* % U60
13 | Clc1ccc(CCc2nnc(-c3ccccn3)n2Cc2cccs2)cc1 [Compound 27] | 3.3 min | 3740 nM | 102 % U60 | 93 % U60 |  | 35 nM |  | 
14 | Cc1ccc(/C=C/c2nnc(-c3nccn3C)n2Cc2cccs2)cc1C(F)(F)F [Compound 50] | 12.2 min | 55800 nM |  | 77 % U60 | 38* % U60 | 1010 nM |  | 
15 | Cc1ccc(CCc2nnc(-c3ccccn3)n2Cc2cccnc2)cc1C(F)(F)F [Compound 11] | 1.7 min | 479 nM | 105 % U60 | 90 % U60 |  | 70 nM |  | 
16 | Cc1ccc(CCCN(CCCc2ccco2)C(=O)c2ccccn2)cc1C(F)(F)F [Compound 64] | 1.0 min | > 10000 nM |  | 88 % U60 | 26* % U60 | 3060 nM |  | 
17 | Cc1ccc(CCc2nnc(-c3ccccn3)n2CC2CC2)cc1C(F)(F)F [Compound 13] | 0.9 min |  |  |  |  |  |  | 
18 | Cc1ccc(/C=C/c2nnc(-c3nccn3C)n2Cc2cccs2)cc1C(F)(F)F [52 (UNC9166)] | 12.2 min | 55800 nM |  | 74.2 % U60 | 37.7 (% max at 10 uM) % U60 | 349 nM |  | 
19 | FC(F)(F)c1ccc(CCc2nnc(-c3ccccn3)n2Cc2cccs2)cc1Cl [Compound 34] | 1.3 min | 127 nM |  |  |  | 1.4 nM |  | 
20 | Cc1ccc(CCc2nnc(-c3cccn3C)n2Cc2cccs2)cc1C(F)(F)F [Compound 23] | 3.1 min | 1320 nM |  |  |  | 36 nM |  | 
21 | c1ccc(-c2nnc(CCc3cccc4ccccc34)n2Cc2cccs2)nc1 [Compound 35] | 1 min | > 10000 nM | 67 % U60 |  |  |  |  | 

Row | SMILES | Microsomal Stability [1] | EC50 (kappa opioid receptor [2]) | β-arrestin2 Emax (% U60) (kappa opioid receptor [2]) | GTPγS Emax (% U60) (kappa opioid receptor [3]) | β-arrestin2 maximum stimulation observed at 10 μM (starred Emax cells / % max at 10 uM) (kappa opioid receptor [2]) | EC50 (kappa opioid receptor [3]) | KOR potency / activity in words (SAR commentary) (kappa opioid receptor [3]) | GTPγS maximum stimulation observed at 10 μM (starred Emax cells) (kappa opioid receptor [3]; * compounds that did not reach plateau, 10 μM)
22 | Cc1ccc(CCCc2nnc(-c3ccccn3)n2Cc2ccco2)cc1C(F)(F)F [Compound 3] | 1.6 |  |  | 74 % U60 |  | 812 nM |  | 
23 | Cc1ccc(/C=C/c2nnc(-c3nccn3C)n2Cc2nccs2)cc1C(F)(F)F [53 (UNC9081)] | 14.5 min | 1570 nM |  |  | 25.9 (% max at 10 uM) % U60 | 309 nM |  | 
24 | Cc1ccc(CCc2nnc(-c3ccccn3)n2Cc2ncco2)cc1C(F)(F)F [Compound 5a] |  | 532 nM |  |  |  | 38 nM |  | 
25 | OC(Cc1nnc(-c2ccccn2)n1Cc1ccco1)c1ccccc1 (stereo not drawn) [Compound 45] | 20.7 min |  |  |  |  |  |  | 
26 | Cc1ccc(CCc2nnc(-c3ccccn3)n2Cc2ccccn2)cc1C(F)(F)F [Compound 10] | 1.0 min | 7690 nM | 125 % U60 | 784 % U60 |  |  |  | 
27 | Cc1ccc(CCc2nnc(-c3ccccn3)n2-c2cccc3ccccc23)cc1C(F)(F)F [Compound 11a] |  |  |  |  |  | 2650 nM |  | 
28 | Brc1ccc(CCc2nnc(-c3ccccn3)n2Cc2cccs2)cc1 [Compound 28] | 4.6 min | 963 nM | 106 % U60 | 96 % U60 |  |  |  | 
29 | Fc1ccc(CCc2nnc(-c3ccccn3)n2Cc2cccs2)cc1 [Compound 26] | 3.1 min | 3020 nM | 75 % U60 | 92 % U60 |  | 288 nM |  | 
30 | C(=C/c1nnc(-c2ccccn2)n1Cc1ccco1)/c1ccccc1 [Compound 39] | 12.6 min |  |  |  | 19* % U60 | 1800 nM |  | 
31 | Cc1ccc(CCc2nnc(-c3ccncn3)n2Cc2cccs2)cc1C(F)(F)F [Compound 18] | 1.1 min | > 10000 nM |  |  | 66* % U60 |  |  | 
32 | Cc1ccc(CCc2nnc(-c3cccc4ccccc34)n2Cc2cccs2)cc1C(F)(F)F [Compound 20] | 0.9 min | > 10000 nM |  |  | 76* % U60 |  |  | 
33 | FC(F)(F)c1ccccc1CCc1nnc(-c2ccccn2)n1Cc1cccs1 [Compound 31] | 3.0 min | > 10000 nM | 44 % U60 |  |  |  |  | 
34 | Cc1ccc(CCc2nnc(-c3ccc4ccccc4n3)n2Cc2cccs2)cc1C(F)(F)F [Compound 22] | 2.2 min | > 10000 nM | ~100 % U60 |  |  |  |  | 
35 | Cc1ccc(/C=C/c2nnc(-c3nccn3C)n2Cc2ccco2)cc1C(F)(F)F [51 (UNC9012)] |  |  |  | 76.1 % U60 | 17.3 (% max at 10 uM) % U60 |  |  | 
36 | Cc1cc(CCc2nnc(-c3ccccn3)n2Cc2cccs2)ccc1C(F)(F)F [Compound 39a] |  |  |  |  |  | 3.1 nM |  | 
37 | FC(F)(Cc1ccccc1)c1nnc(-c2ccccn2)n1Cc1ccco1 [Compound 44] |  |  |  |  |  |  | completely inactive | 
38 | Cc1ccc(CCc2nnc(-c3ccc4ccccc4c3)n2Cc2cccs2)cc1C(F)(F)F [Compound 21] | 1.3 min |  |  |  | 16* % U60 |  |  | 
39 | Cc1ccc(CCc2nnc(-c3ccccn3)n2-c2ccc3ccccc3c2)cc1C(F)(F)F [Compound 12a] |  |  |  |  |  | 10300 nM |  | 
40 | Cc1ccc(CCc2nnc(-c3ccccc3)n2Cc2cccs2)cc1C(F)(F)F [Compound 14] | 1.8 min | > 10000 nM | ~100 % U60 |  |  |  |  | 
41 | Cc1ccc(CCc2nnc(-c3ccccn3)n2Cc2ccccc2)cc1C(F)(F)F [Compound 8] | 0.9 min | 6340 nM | 180 % U60 |  |  |  |  | 

Reference: patent US20260242362A1, “PREPARATION OF 3,4,5-TRISUBSTITUTED TRIAZOLES AND METHODS OF USING THE SAME” (University of Florida Research Foundation, Incorporated, priority 2023, published 2026)
